Here are results for 4 compounds from US12234216B2, “Isotopologues salts, crystalline forms, stereoisomers, of methylone and ethylone and methods of use thereof” (Terran Biosciences Inc., priority 2021, dated 2025).

Data set [1] is described as follows: Metabolic stability in human liver microsomes. Format: in vitro ADME. The settings on record: human liver microsomes. On the procedure:
Pooled liver microsomes are purchased from a reputable commercial supplier. Microsomes are stored at […] prior to use. Microsomes (final protein concentration 0.5 mg/mL), 0.1 M phosphate buffer pH 7.4 and test compound (final substrate concentration 1 μM; final DMSO concentration 0.25%) are preincubated at 37° C. prior to the addition of NADPH (final concentration 1 mM) to initiate the reaction. A minus cofactor control incubation is included for each compound tested where 0.1 M phosphate buffer pH 7.4 is added instead of NADPH (minus NADPH). Two control compounds are included with each species. All incubations are performed singularly for each test compound. Each compound is incubated for 0, 5, 15, 30 and 45 min. The control (minus NADPH) is incubated for 45 min only. The reactions are stopped by transferring incubate into acetonitrile at the appropriate time points, in a 1:3 ratio. The termination plates are centrifuged at 3,000 rpm for 20 min at 4° C. to precipitate the protein.
From a plot of ln peak area ratio (compound peak area/internal standard peak area) against time, the gradient of the line is determined. Subsequently, half-life and intrinsic clearance are calculated using the equations below: Elimination rate constant (k)=(−gradient) Half-life (t½)(min)=0.693/k Intrinsic clearance (CLint)(μL/min/mg protein)=V×0.693/t½ where V=Incubation volume (μL)/Microsomal protein (mg)
Relevant control compounds were assessed, ensuring intrinsic clearance values fall within the specified limits (if available).

Data set [2] deals with Male Sprague-Dawley rats. Briefly: Rat elevated zero-maze model of anxiety. Type of data set: in vivo. The note with it: for decrease in SAPs compared with chlordiazepoxide / time spent in the open arms compared with chlordiazepoxide: 30 mg/kg ip vs chlordiazepoxide 6 mg/kg ip; for anxiolytic effects compared with chlordiazepoxide: high dose level; for time in the open arms: FIGS. 62-64. The text has this: The rat zero-maze model is a refined alternative to the plus-maze, the most widely used animal model of anxiety, and consists of an elevated annular platform, divided equally into four quadrants. Two opposite quadrants are enclosed by Perspex walls on both the inner and the outer edges of the platform, while the remaining two opposite quadrants are open being enclosed only by a Perspex “lip”. Animals will show a preference for the closed areas, and avoidance of the open sections is assumed to stem from a rodent's natural aversion to open, exposed spaces. The primary index of anxiety, which reflect changes in open arm preference, is the percentage of time spent on the open areas. A reduction in the amount of activity on the open areas is considered to reflect an increase in anxiety. Other, ethologically-based behaviours are also assessed as indices of anxiety. One of the most important is stretched attend postures (SAP) from closed to open quadrants. […] Shepherd, J K; et al., (1994) Behavioural and pharmacological validation of the elevated “zero-maze” as an animal model of anxiety. Psychopharmacol., 116:56-64.
Male Sprague-Dawley 200-250 g (Envigo UK) rats were used. Animals were group-housed (5 per cage; cage size: 40×40×20 cm) in a temperature-controlled environment (22±2° C.), under a 12 h light-dark cycle (lights on: 08:00 hours) for one week prior to testing. Food and water were freely available. Number of animals per group=5. Animals were moved into the experimental room 16-24 hours before testing.
The elevated 0-maze comprises a black Perspex annular platform (105 cm diameter, 10 cm width) elevated to 65 cm above ground level, divided equally into four quadrants. Two opposite quadrants are enclosed by clear red Perspex walls (27 cm high) on both the inner and outer edges of the platform, while the remaining two opposite quadrants are surrounded only by a Perspex “lip” (1 cm high) which serves as a tactile guide to animals on these open areas.
Subjects were weighed and tail marked before being injected. After a specified pre-treatment time, subjects were placed in a closed quadrant and a 5-min test period were recorded on videotape for subsequent analysis. The maze were cleaned with 5% methanol/water solution and dried thoroughly between test sessions. Behavioural measures comprise percentage time spent on the open areas (% TO) and frequency of stretched attend postures (SAP) from closed to open quadrants. Since the control groups were all treated identically with the same vehicle these were combined to increase power. The Chlordiazepoxide groups were also treated identically with the same dose so these were also combined to increase power. Animals are scored as being in the open area when all four paws were in an open quadrant and in the closed area only when all four paws have passed over the open-closed divide. All testing were carried out between 9.00 and 16.00 hours.
For each study, a 1-way ANOVA was conducted across vehicle, CDP, and drug treatment groups. Each group was compared to the vehicle group and a p-value for treatment determined by Fishers Least Significant Difference (LSD) test. This analysis was performed in GraphPad Prism (Version 9). Formulations: […]
Intraperitoneal (IP): Racemic methylone HCl was formulated in Vehicle 1 (Saline) for injection to concentrations of 1, 3 and 6 mg/mL to provide doses of 5, 15 and 30 mg/kg when administered ip in 5 mL/kg dosing volumes.
Intraperitoneal (IP): S-methylone HCl was formulated in Vehicle 1 (Saline) for injection to concentrations of 0.5, 1, 1.5, 3 and 6 mg/mL to provide doses of 2.5, 5, 7.5, 15 and 30 mg/kg when administered ip in 5 mL/kg dosing volumes.
Intraperitoneal (IP): R-methylone HCl was formulated in Vehicle 1 (Saline) for injection to concentrations of 1, 3 and 6 mg/mL to provide doses of 5, 15 and 30 mg/kg when administered ip in 5 mL/kg dosing volumes. […]

In data set [3] the test system is participants diagnosed with at least moderate post-traumatic stress disorder (PTSD). Briefly: Double-blind, randomized, placebo-controlled clinical trial of methylone-assisted psychotherapy in PTSD. Format: in vivo, human. The note with it: for CAPS-5 assessments compared to placebo-treated controls: Intervening Session 1C, 2C, 3C and Study Conclusion; for clinician-rated functional impairment score as measured by SDS / depression as measured by HAM-D: vs placebo-treated controls; for change in CAPS-5 assessment compared to the placebo group: 100-200 mg p.o. initial dose, 3 Experimental Sessions with psychotherapy. On the procedure: A multicenter, randomized, double-blind, placebo-controlled trial is conducted to assess the efficacy and safety of methylone-assisted psychotherapy versus psychotherapy with placebo control in participants diagnosed with at least moderate post-traumatic stress disorder (PTSD).
This multicenter, randomized, double-blind, placebo-controlled trial is conducted at various sites in the United States with IRB approval from each study site. A flexible dose of methylone hydrochloride salt or placebo, followed by a supplemental half-dose unless contraindicated by patient's previous response or medical history, is also administered during the Treatment Period with psychotherapy in at least 3 blinded monthly Experimental Sessions. The Supplemental Dose extends the duration of drug effects on the participants during an Experimental Session. Methylone test groups are further subdivided into specific groups receiving only racemic methylone hydrochloride salt, S-methylone hydrochloride salt, or R-methylone hydrochloride salt. An optional Risk Evaluation and Mitigation Strategy (REMS) Protocol may be implemented for the racemic methylone, S-methylone, and placebo-groups. The Treatment Period lasts for approximately 12 weeks. During the Treatment Period, each Experimental Session is followed by three Intervening Sessions of non-drug psychotherapy. Each Experimental Session involves an overnight stay. The Primary Outcome measure, the change in Clinician Administered PTSD Scale for DSM-5 (CAPS-5), is determined by a blinded Independent Rater (IR) pool multiple times throughout the study. The study consists of separate periods for each participant. Initially, prospective participants undergo a Screening Period involving an initial eligibility assessment, a medical history intake, informed consent, and enrollment of eligible participants. Next, a Preparation Period is undertaken for enrolled participants involving medication tapering and clinical baseline assessments to confirm each participant meets enrollment criteria. As part of the Preparation Period, a detailed assessment of co-morbidities to PTSD is recorded. Participants may remain on prescribed courses of selective serotonin reuptake inhibitor (SSRI) or serotonin and norepinephrine reuptake inhibitor (SNRI) treatment. Dosages and/or frequency of administration of a prescribed SSRI or SNRI may be adjusted to fit within study parameters. Participants may be required to taper a prescribed course of medication in order to maintain eligibility within the study. The Treatment Period consists of three monthly Experimental Sessions and associated Intervening Sessions of integrative behavioral psychotherapy. The Treatment Period lasts approximately 12 weeks. Following the Treatment Period is a Follow-up Period and Study Conclusion. During the Follow-up Period and Study Conclusion, participants complete 4 weeks with no study visits, followed by a Study Conclusion visit.
This study compares the effects of three blinded Experimental Sessions of psychotherapy in combination with flexible doses of methylone or placebo administered as described below. Non-drug preparatory and intervening psychotherapy sessions are also included. Patient's weight is determined for dosage calculation. Initial dose is 100 mg unless this will result in a dosage of less than 1.5 mg/kg of patient weight. Initial dose thereby adjusted upward in 25 mg increments to deliver the lowest dose possible of at least 1.5 mg/kg of patient weight. Initial dose for Experimental Session 2 and 3 is cumulative dose calculated by adding the initial dose plus REMS protocol dose used the previous Experimental Session for each patient.
Randomization occurs prior to the initiation of Experimental Session 1. Each participant is provided the next randomized number in a sequence by a blinded study monitor. […]

The mark [4] stands for this setting: specific doses, ip, 30 min pretest.
The mark [5] stands for this setting: specific doses, ip, 30 min pretest, vs chlordiazepoxide 6 mg/kg, FIGS. 65-67.

Counter-ions that a name gives are not always drawn.

For the compound `Cl.[2H]C1([2H])Oc2ccc(C(=O)C(C)NC)cc2O1` (racemic) [(rac)-Methylone-d2 hydrochloride, 1-(benzo[d][1,3]dioxol-5-yl-2,2-d2)-2-((methyl)amino)propan-1-one HCl], in data set [1], the “difference in half-life and intrinsic clearance compared with the corresponding non-deuterated methylone hydrochloride” value was “differences in half-life and intrinsic clearance”.
Take `Cl.[2H]C([2H])([2H])NC(C)C(=O)c1ccc2c(c1)OCO2` (racemic) [(rac)-Methylone-d3 hydrochloride, 1-(benzo[d][1,3]dioxol-5-yl)-2-((methyl-d3)amino)propan-1-one HCl]: the “difference in half-life and intrinsic clearance compared with the corresponding non-deuterated methylone hydrochloride” value in data set [1] was “differences in half-life and intrinsic clearance”.
For `CN[C@H](C)C(=O)c1ccc2c(c1)OCO2` [(R)-Methylone Hydrochloride, (R)-1-(benzo[d][1,3]dioxol-5-yl)-2-(methylamino)propan-1-one hydrochloride], the “frequency of SAPs” value in data set [2] (30 mg/kg ip) is given as “significantly decreasing SAPs”. In data set [2], the “decrease in SAPs compared with chlordiazepoxide” value is listed as “to the same level as chlordiazepoxide”, the “time spent in the open arms compared with chlordiazepoxide” value is “as effective as chlordiazepoxide” and the “anxiolytic effects compared with chlordiazepoxide” value is “anxiolytic effects as effective as chlordiazepoxide”. Also, in data set [2] (5, 15 and 30 mg/kg ip), the “frequency of SAPs, trend with dose” value is listed as “dose dependent decrease in SAPs” and the “time spent in the open arms, trend with dose” value is “dose dependent increase in time spent in the open arms”. Besides, the anxiogenic effect result in data set [2] (any dose (5, 15, 30 mg/kg ip)) is given as “did not show any anxiogenic effect at any dose”. Moreover, in data set [2] (ip), the “anxiogenic effects at lower doses” value is recorded as “not seen”. Further, in data set [2] (setting [4]), the “time in the open arms” value is recorded as “increase time in the open arms”. Further, the “frequency of SAPs” value in data set [2] (setting [5]) is given as “decreased the frequency of SAPs as effectively as the benzodiazepine chlordiazepoxide”. In addition, the “CAPS-5 assessments compared to placebo-treated controls” value in data set [3] was “Significant improvements in CAPS-5 assessments”. In data set [3] (Study Conclusion), the “daytime sleepiness as measured by ESS” value is on record as “significant improvement in lessening daytime sleepiness”, the “clinician-rated functional impairment score as measured by SDS” value was “significant improvement in clinician-rated functional impairment score”, the “depression as measured by HAM-D” value was “significant improvement depression” and the “change in CAPS-5 assessment compared to the placebo group” value is recorded as “significant mean reduction in CAPS-5 assessment”. The adverse anxiogenic incidents entry in data set [3] (compared to placebo-treated controls) is given as “without a significant increase in adverse anxiogenic incidents”.
Consider `CN[C@@H](C)C(=O)c1ccc2c(c1)OCO2` [(S)-Methylone Hydrochloride, (S)-1-(benzo[d][1,3]dioxol-5-yl)-2-(methylamino)propan-1-one hydrochloride], for which the “frequency of SAPs, trend with dose” value in data set [2] (2.5 mg/kg and 5 mg/kg ip) is “dose dependent increase in SAPs”. In addition, in data set [2] (5 mg/kg, 7.5 mg/kg and 15 mg/kg ip), the “time spent in the open arms, trend with dose” value is reported as “time spent in the open arms decreased as the dose increased”. Further, in data set [2] (7.5 mg/kg, 15 mg/kg and 30 mg/kg ip), the “frequency of SAPs, trend with dose” value was “dose dependent decrease in SAPS”. For the same compound, in data set [2] (30 mg/kg ip), the “overall effect on anxiety” value is recorded as “effective anxiolytic on all measures” and the “time spent in the open arms” value is recorded as “time in the open arms increased”. In data set [2], the “decrease in SAPs compared with chlordiazepoxide” value is reported as “even more effective than chlordiazepoxide at reducing SAPs”, the “time spent in the open arms compared with chlordiazepoxide” value is given as “as effective as chlordiazepoxide at increasing time spent in the open arms” and the “anxiolytic effects compared with chlordiazepoxide” value is on record as “anxiolytic effects as effective as chlordiazepoxide”. In addition, the “anxiogenic effects at lower doses” value in data set [2] (ip, hydrochloride) was “anxiogenic effects at lower doses”. The “time in the open arms” value in data set [2] (setting [4]) is “increase time in the open arms”. Also, the “frequency of SAPs” value in data set [2] (setting [5]) is “decreased the frequency of SAPs as effectively as the benzodiazepine chlordiazepoxide”. The “CAPS-5 assessments compared to placebo-treated controls” value in data set [3] is listed as “Significant improvements in CAPS-5 assessments”. Also, in data set [3] (Study Conclusion), the “daytime sleepiness as measured by ESS” value is “significant improvement in lessening daytime sleepiness”; the “total dosage of drug needed for significant mean reduction in CAPS-5, compared to the racemic methylone-treated subgroup” value was “lower total dosage of drug”; the “clinician-rated functional impairment score as measured by SDS” value is on record as “significant improvement in clinician-rated functional impairment score”; the “depression as measured by HAM-D” value was “significant improvement depression”. Further, the “change in CAPS-5 assessment compared to the placebo group” value in data set [3] (Study Conclusion) was “significant mean reduction in CAPS-5 assessment”.
